Assay [1] can be described thus: Test Example 5: removal of hydrogen sulfide dissolved in water, 30 minutes stirring, methylene blue colorimetric method. The conditions noted are these: for residual hydrogen sulfide (in words): summary of Table 5. How it is done: Distilled water was bubbled with a hydrogen sulfide gas. Thus, a solution containing dissolved hydrogen sulfide (5 mgS/l) was prepared. The solution was placed in separate beakers. Then, formulations that were prepared in accordance with Test example 4 were separately added thereto in a manner such that the concentration of each test compound became 500 ppm, followed by stirring for 30 minutes using a stirrer. Thereafter, the residual hydrogen sulfide concentration was measured. The measurement was carried out using “Pack Tests” (Kyoritsu Chemical-Check Lab., Corp.) in accordance with a methylene blue colorimetric method.

Assay [2] in a line: Test Example 3: removal of hydrogen sulfide dissolved in water, methylene blue colorimetric method. The following applies: for removal of hydrogen sulfide dissolved in water (in words): summary of Table 3; for Residual hydrogen sulfide concentration: water, test compound 500 ppm, stirring for 10 minutes, ND = complete removal. How it is done: Distilled water was bubbled with hydrogen sulfide gas. Thus, a hydrogen sulfide-dissolved solution (5 mgS/l) was prepared. The solution was placed in separate beakers. Then, formulations that were prepared in accordance with Test example 2 were separately added thereto in a manner such that the concentration of each test compound became 500 ppm, followed by stirring for 10 minutes. Thereafter, the residual hydrogen sulfide concentration was measured. The measurement was carried out using “Pack Tests” (Kyoritsu Chemical-Check Lab., Corp.) in accordance with a methylene blue colorimetric method.

Assay [3] can be described thus: Test Example 1: removal of hydrogen sulfide from hexane, FPD gas chromatography. The following applies: for Test sample A Hydrogen sulfide concentration: 100 ppm hydrogen sulfide, 100 ppm compound; for effect of removing hydrogen sulfide (in words): summary of Table 1. On the procedure: Two 200-ml four-neck flasks were provided. Hexane (100 ml) was placed in the flask equipped with a bubbling device. In the other flask, iron sulfide underwent a reaction with the dropwise addition of hydrochloric acid, resulting the generation of hydrogen sulfide. Then, hexane was subjected to bubbling with hydrogen sulfide that had been transferred via a tube. Thus, test samples at a hydrogen sulfide concentration of 100 ppm were prepared. The measurement of hydrogen sulfide concentration was carried out by FPD gas chromatography (using a flame photometric detector). Stock solution of BNPA, DBNE, and BNP (100 ppm each) were separately added to the test samples, followed by stirring for a given period of time. The hydrogen sulfide concentration of each sample was measured in a time-dependent manner.

Assay [4] can be described thus: Test Example 2: removal of methyl mercaptan gas by formulation in closed bag, detector tube. The following applies: for Methyl mercaptan gas concentration: 1 ml formulation, methyl mercaptan gas at 500 ppm; for effect of removing methyl mercaptan (in words): summary of Table 2. On the procedure:
A formulation containing BNPA was previously prepared in accordance with Formulation example 1. With the use of DBNE and BNP instead of BNPA, formulations containing DBNE and BNP, respectively, were prepared, in accordance with formulation example 1. Each formulation (1 ml) was dispensed into a glass petri dish covered with a plastic bag. Then, each plastic bag was closed after being filled with methyl mercaptan gas at 500 ppm. The methyl mercaptan gas was allowed to come into contact with the formulation for a given time. Thereafter, the methyl mercaptan gas concentration was measured using a detector tube.

Assay [5] in a line: Test Example 4: removal of hydrogen sulfide gas by formulation in closed bag, detector tube. The conditions noted are these: for Hydrogen sulfide concentration: 1 ml formulation, 1 liter hydrogen sulfide gas at 500 ppm; for removal of hydrogen sulfide gas (in words): summary of Table 4. On the procedure: A formulation containing BNPA was previously prepared in accordance with Formulation example 1. With the use of BNP instead of BNPA, a formulation containing BNP was prepared in accordance with formulation example 1.
Iron sulfide and hydrochloric acid were allowed to react with each other, resulting in the generation of hydrogen sulfide. Thus, hydrogen sulfide gas at a concentration of 500 ppm was prepared. Each formulation (1 ml) was placed in a glass petri dish covered with a plastic bag. Then, each plastic bag was closed after being filled with 1 liter of hydrogen sulfide gas. At 24 and 48 hours later, the hydrogen sulfide gas concentration was measured using a detector tube.

The structures appear in SMILES notation.

Regarding `O=[N+]([O-])C(Br)(CO)CO` [BNP, 2-bromo-2-nitro-1,3-propanediol], the “residual hydrogen sulfide (in words)” value in assay [1] is “residual hydrogen sulfide was observed”. The “Residual hydrogen sulfide concentration” value in assay [1] (water 5 mgS/l, test compound 500 ppm, stirring for 30 minutes, ND = no hydrogen sulfide observed) is on record as 1 mgS/l; in assay [2], 18 mgS/l. Besides, the “removal of hydrogen sulfide dissolved in water (in words)” value (shortened to “removal of hydrogen sulfide dissolved”) in assay [2] was “very low capacity for removing hydrogen sulfide”. Also, the “Test sample A Hydrogen sulfide concentration” value came to 100 ppm in assay [3] (contact time 0 minutes), 81 ppm in assay [3] (contact time 10 minutes), 77 ppm in assay [3] (contact time 30 minutes) and 68 ppm in assay [3] (contact time 60 minutes). In assay [3], the “effect of removing hydrogen sulfide (in words)” value is on record as “the removal efficiency was poor”. Moreover, the “Methyl mercaptan gas concentration” value is reported as 500 ppm in assay [4] (contact time 0 hours), 485 ppm in assay [4] (contact time 24 hours) and 461 ppm in assay [4] (contact time 48 hours). Besides, the “effect of removing methyl mercaptan (in words)” value in assay [4] is “almost no effect of removing methyl mercaptan”. Also, the Hydrogen sulfide concentration is 500 ppm in assay [5] (contact time 0 hours), 480 ppm in assay [5] (contact time 24 hours) and 470 ppm in assay [5] (contact time 48 hours). For the same compound, the “removal of hydrogen sulfide gas (in words)” value in assay [5] was “complete removal was not achieved”.

Consider `CC(=O)OCC(Br)(COC(C)=O)[N+](=O)[O-]` [BNPA, 2-bromo-2-nitropropane-1,3-diyl diacetate], for which the “residual hydrogen sulfide (in words)” value in assay [1] is recorded as “no hydrogen sulfide was observed”. Moreover, the “removal of hydrogen sulfide dissolved” value in assay [2] was “complete removal of hydrogen sulfide”. Moreover, the “Test sample A Hydrogen sulfide concentration” value in assay [3] (contact time 0 minutes) is recorded as 100 ppm; in assay [3] (contact time 10 minutes), 38 ppm; in assay [3] (contact time 30 minutes) it was 14 ppm; in assay [3] (contact time 60 minutes) it was 2 ppm. For the same compound, in assay [3], the “effect of removing hydrogen sulfide (in words)” value is reported as “had an effect of removing hydrogen sulfide”. Besides, the “Methyl mercaptan gas concentration” value was determined as 500 ppm in assay [4] (contact time 0 hours), 283 ppm in assay [4] (contact time 24 hours) and 0 ppm in assay [4] (contact time 48 hours). In addition, the “effect of removing methyl mercaptan (in words)” value in assay [4] is reported as “complete removal of methyl mercaptan gas was achieved after 48 hours”. For the same compound, the Hydrogen sulfide concentration was found to be 500 ppm in assay [5] (contact time 0 hours), 210 ppm in assay [5] (contact time 24 hours) and 0 ppm in assay [5] (contact time 48 hours). Also, the “removal of hydrogen sulfide gas (in words)” value in assay [5] is recorded as “complete removal of hydrogen sulfide was achieved after 48 hours”.

With `O=[N+]([O-])C(Br)(Br)CO` [DBNE, 2,2-dibromo-2-nitroethanol], in assay [2], the “removal of hydrogen sulfide dissolved” value is listed as “confirmed to have an effect of removing hydrogen sulfide”. Further, the “Residual hydrogen sulfide concentration” value in assay [2] was 5 mgS/l. In addition, the “Test sample A Hydrogen sulfide concentration” value in assay [3] (contact time 0 minutes) amounted to 100 ppm; in assay [3] (contact time 10 minutes), 42 ppm; in assay [3] (contact time 30 minutes) it was 25 ppm; in assay [3] (contact time 60 minutes), 11 ppm. For the same compound, the “effect of removing hydrogen sulfide (in words)” value in assay [3] is reported as “had an effect of removing hydrogen sulfide”. Moreover, the “Methyl mercaptan gas concentration” value in assay [4] (contact time 0 hours) amounted to 500 ppm; in assay [4] (contact time 24 hours), 358 ppm; in assay [4] (contact time 48 hours), 29 ppm. Also, in assay [4], the “effect of removing methyl mercaptan (in words)” value is listed as “confirmed to have the effect of removing methyl mercaptan”.

These data come from patent US20070205140A1, “Method of Removing Sulfides Including Hydrogen Sulfide and Mercaptan” (K - I CHEMICAL INDUSTRY CO., LTD., priority 2004, published 2007).
